ChEMBL document CHEMBL5370594, “Novel Compounds for Preventing SARS-CoV-2 Viral Replication and Treating COVID-19” (ACS Med Chem Lett, 2023)

Target: Replicase polyprotein 1ab (Severe acute respiratory syndrome coronavirus 2, UniProt P0DTD1)
Assay: Inhibition of full-length recombinant SARS-CoV-2 3CL protease expressed in Escherichia coli BL21 (DE3) using FAM- KTSAVLQSGFRKMEK-TAMRA as substrate pre-incubated for 1 hr with compound followed by substrate addition measured after 30 mins by FRET analysis

| Compound | IC50 [nM] |
| --- | --- |
| CC(C)(C)[C@H](NC(=O)C(F)(F)F)C(=O)N1C[C@H]2[C@@H]([C@H]1C(=O)NN(C[C@@H]1CCNC1=O)C(=O)CCl)C2(C)C | 6 |
| CC[C@H](C)[C@H](NC(=O)C(F)(F)C(F)(F)F)C(=O)N1C[C@@H]2CCC[C@@H]2[C@H]1C(=O)NN(C[C@@H]1CCNC1=O)C(=O)[C@H](F)Cl | 6 |
| CCC(CC)[C@H](NC(=O)C(F)(F)F)C(=O)N1C[C@H]2[C@@H]([C@H]1C(=O)NN(C[C@@H]1CCNC1=O)C(=O)[C@H](F)Cl)C2(C)C | 7 |
